Test results as given in patent publication US10369138B2, “Monobactam organic compounds for the treatment of bacterial infections” (Novartis AG, priority 2014, dated 2019).
≈ marks a conversion by molar mass, not a printed value. Like-named read-outs stand apart in the source and are kept apart here.

Tests used:
E. coli strain 25922 = experiment: MIC by broth microdilution, E. coli strain 25922; assay type: cell-based
Protocol: (§1) Bacterial isolates were cultivated from −70° C. frozen stocks by two consecutive overnight passages at 35° C. in ambient air on 5% blood agar (Remel, Lenexa, Kans.). Quality control and P. aeruginosa ATCC 27853) is from the American Type Culture Collection (ATCC; Rockville, Md.) and PAO1 was received from Dr. K. Poole.
Minimal Inhibitory Concentrations (MICs) were determined by the broth microdilution method in accordance with Clinical and Laboratories Institute (CLSI) guidelines. In brief, fresh overnight bacterial cultures were suspended in sterile saline, and adjusted to a 0.5 McFarland turbidity standard. Bacterial suspensions were then diluted in cation adjusted Mueller-Hinton Broth (MHB II; BBL) to yield a final inoculum of approximately 5×10^5 colony-forming units (CFU)/mL. A master plate of antibiotics was prepared at a concentration equivalent to hundred-fold the highest desired final concentration in 100% dimethyl sulfoxide (DMSO). The master antibiotic plate was then diluted by serial twofold dilution with a multichannel pipette. The resulting dilution series of compounds were diluted 1:10 with sterile water leading to a 10% DMSO final concentration. A volume of 10 μL of the drug dilution series was transferred to 96-well assay plates. Assay plates were inoculated with 90 μL of bacterial suspensions and incubated at 35-37° C. for 20 hrs. The assay plates were read using a microtiter plate reader (Molecular Devices) at 600 nm as well as by visual observation with a reading mirror. The lowest concentration of the compound that prevented visible growth was recorded as the MIC. Performance of the assay was monitored by testing aztreonam against laboratory quality control strains in accordance with guidelines of the CLSI.

E. coli containing KPC-2 = experiment: MIC by broth microdilution, E. coli containing KPC-2 (Ec KPC2 Iso); assay type: cell-based; details: Escherichia coli, read-out: Ec KPC2 Iso (MIC), E. coli containing KPC-2 (carbapenemase from Klebsiella pneumoniae)
Protocol: as §1
Strain NB27273 (BW25113 pspB::Km^r) was obtained from the Keio transposon insertion collection. The strain has the pspB gene replaced by a kanamycin resistance marker (BW25113 pspB::Km^r). This strain was cured of the transposon in pspB via FLP recombinase using published methodology. The resulting strain, BW25113 pspB, was used as a host for multicopy vectors expressing key β-lactamases. Multicopy plasmids directing constitutive expression of β-lactamases were established as follows: Synthetic, codon optimized genes encoding E. coli KPC2 and SHV12 β-lactamases were made by DNA2.0 (Palo Alto, Calif.). Each of the synthetic fragments were designed to contain NotI and NcoI restriction sites at their termini, allowing ligation into a NotI/NcoI digested pET28a(+) derivative for protein expression. […] The codon optimized nucleotide sequences and relevant primer recognition information is shown below:
The PCR products were then digested with XhoI and EcoRI and ligated into similarly digested plasmid pAH63-pstS(BlaP). Plasmid pAH63-pstS(BlaP) is a derivative of plasmid pAH63 (J Bacteriol: 183(21): 6384-6393) made by cloning the TEM-1 (bla) promoter and signal peptide encoding region from plasmid pBAD (J Bacteriol. 1995 July 177(14):4121-30) into plasmid pAH63. This fragment was PCR amplified from pBAD using primer pair E192 (ttca[…]) (SEQ ID NO:13) and E194 ([…]) (SEQ ID NO:14), digested with PstI and BamHI and inserted into similarly digested plasmid pAH63. Therefore, expression of β-lactamases from pAH63-pstS(BlaP) based constructs is constitutive and the signal sequence is provided to direct these proteins to the periplasm. Plasmid pAH63 based vectors are used for insertion into the genome in single copy, however, to provide higher expression levels to allow more sensitive detection of the susceptibility of compounds to the β-lactamases, the expression inserts contained in these vectors were moved to the replicative multicopy vector pBAD-Kan (J Bacteriol. 1995 July 177(14):4121-30). To accomplish this, the inserts encompassing the β-lactamase genes, with the associated TEM promoter and signal sequences, were PCR amplified from their corresponding vectors using primer E269 (ccg[…]) (SEQ ID NO:15) and E202 (aatc[…]) (SEQ ID NO:16) for the KPC2 construct and E204 (aatc[…]) (SEQ ID NO:17) for the SHV12 construct. These fragments were then digested with XbaI and EcoRI, and each was inserted into pBAD18-kan that had been digested with the same enzymes to generate a pair of multicopy vectors expressing KPC2 and SHV12 respectively. These vectors were transformed into BW25113 pspB to generate strains NB27273-CDY0033 (expressing KPC2) and NB27273-CDY0030 (expressing SHV12). The pBAD18-kan vector also contains the TEM promoter region and signal sequence, (but lacks any intact β-lactamase genes) and was transformed into BW25113 pspB using standard protocols to generate the control strain NB27273-CDY0026. Expression of the β-lactamases was confirmed by verifying decreased susceptibility to example test antibiotics that are known substrates of KPC2 or SHV12. Susceptibility Testing
Minimal Inhibitory Concentrations (MICs) were determined by the broth microdilution method in accordance with Clinical and Laboratories Institute (CLSI) guidelines. In brief, fresh overnight bacterial cultures were suspended in sterile saline, and adjusted to a 0.5 McFarland turbidity standard. Bacterial suspensions were then diluted in cation adjusted Mueller-Hinton Broth (MHB II; BBL) to yield a final inoculum of approximately 5×10^5 colony-forming units (CFU)/mL. […]

[1] = Escherichia coli, 25922, E. coli strain 25922, read-out: Ec 25922 (MIC)

**Q.** For `CC(C)(O/N=C(\C(=O)N[C@@H]1C(=O)N(S(=O)(=O)O)[C@@H]1Cn1ncc(CC#N)n1)c1csc(N)n1)C(=O)O` [Example 33, 2-(((Z)-(1-(2-aminothiazol-4-yl)-2-(((2R,3S)-2-((4-(cyanomethyl)-2H-1,2,3-triazol-2-yl)methyl)-4-oxo-1-sulfoazetidin-3-yl)amino)-2-oxoethylidene)amino)oxy)-2-methylpropanoic acid], which MIC (E. coli strain 25922; [1]) is on record?
**A.** 2 µg/mL (≈ 3.69 µM)

**Q.** What about the MIC (E. coli containing KPC-2) of the same compound?
**A.** 2 µg/mL (≈ 3.69 µM)

**Q.** What does the source list for `CC(C)(O/N=C(\C(=O)N[C@@H]1C(=O)N(S(=O)(=O)O)[C@@H]1Cn1ccc(N)n1)c1csc(N)n1)C(=O)O` [Example 34, 2-(((Z)-(2-(((2R,3S)-2-((3-amino-1H-pyrazol-1-yl)methyl)-4-oxo-1-sulfoazetidin-3-yl)amino)-1-(2-aminothiazol-4-yl)-2-oxoethylidene)amino)oxy)-2-methylpropanoic acid]?
**A.** MIC (E. coli strain 25922; [1]): > 64 µg/mL; MIC (E. coli containing KPC-2): > 64 µg/mL

**Q.** For `CC(C)(O/N=C(\C(=O)N[C@@H]1C(=O)N(S(=O)(=O)O)[C@@H]1Cn1cc(N)cn1)c1csc(N)n1)C(=O)O` [Example 35, 2-(((Z)-(2-(((2R,3S)-2-((4-amino-1H-pyrazol-1-yl)methyl)-4-oxo-1-sulfoazetidin-3-yl)amino)-1-(2-aminothiazol-4-yl)-2-oxoethylidene)amino)oxy)-2-methylpropanoic acid], which MIC (E. coli strain 25922; [1]) is on record?
**A.** 2 µg/mL (≈ 3.87 µM)

**Q.** What about the MIC (E. coli containing KPC-2) of the same compound?
**A.** 1 µg/mL (≈ 1.94 µM)

**Q.** How did the MIC (E. coli strain 25922; [1]) turn out when `CC(C)(O/N=C(\C(=O)N[C@@H]1C(=O)N(S(=O)(=O)O)[C@@H]1Cn1ncc(C[N+]2(C)CCCC2)n1)c1csc(N)n1)C(=O)O` [Example 36, (2R,3S)-3-((Z)-2-(2-aminothiazol-4-yl)-2-(((2-carboxypropan-2-yl)oxy)imino)acetamido)-2-((4-((1-methylpyrrolidin-1-ium-1-yl)methyl)-2H-1,2,3-triazol-2-yl)methyl)-4-oxoazetidine-1-sulfonate] was run?
**A.** 2 µg/mL

**Q.** And the MIC (E. coli containing KPC-2)?
**A.** 1 µg/mL

**Q.** How did the MIC (E. coli strain 25922; [1]) turn out when `CC(C)(O/N=C(\C(=O)N[C@@H]1C(=O)N(S(=O)(=O)O)[C@@H]1Cn1ncc(COC(N)=O)n1)c1csc(N)n1)C(=O)O` [Example 37, 2-(((Z)-(1-(2-aminothiazol-4-yl)-2-(((2R,3S)-2-((4-((carbamoyloxy)methyl)-2H-1,2,3-triazol-2-yl)methyl)-4-oxo-1-sulfoazetidin-3-yl)amino)-2-oxoethylidene)amino)oxy)-2-methylpropanoic acid] was run?
**A.** 2 µg/mL (≈ 3.47 µM)

**Q.** What about the MIC (E. coli containing KPC-2) of the same compound?
**A.** 2 µg/mL (≈ 3.47 µM)

**Q.** What does the source list for `CC(C)(O/N=C(\C(=O)N[C@@H]1C(=O)N(S(=O)(=O)O)[C@@H]1Cn1ncc(COS(=O)(=O)O)n1)c1csc(N)n1)C(=O)O` [Example 38, 2-(((Z)-(1-(2-aminothiazol-4-yl)-2-oxo-2-(((3S,4R)-2-oxo-1-sulfo-4-((4-((sulfooxy)methyl)-2H-1,2,3-triazol-2-yl)methyl)azetidin-3-yl)amino)ethylidene)amino)oxy)-2-methylpropanoic acid]?
**A.** MIC (E. coli strain 25922; [1]): 8 µg/mL (≈ 13.1 µM); MIC (E. coli containing KPC-2): 4 µg/mL (≈ 6.53 µM)

**Q.** For `CC(C)(O/N=C(\C(=O)N[C@@H]1C(=O)N(S(=O)(=O)O)[C@@H]1CN1CCN=C1N)c1csc(N)n1)C(=O)O` [Example 39, 2-(((Z)-(2-(((2R,3S)-2-((2-amino-4,5-dihydro-1H-imidazol-1-yl)methyl)-4-oxo-1-sulfoazetidin-3-yl)amino)-1-(2-aminothiazol-4-yl)-2-oxoethylidene)amino)oxy)-2-methylpropanoic acid], which MIC (E. coli strain 25922; [1]) is on record?
**A.** 64 µg/mL (≈ 123 µM)

**Q.** And the MIC (E. coli containing KPC-2)?
**A.** > 64 µg/mL

**Q.** For `CC(C)(O/N=C(\C(=O)N[C@@H]1C(=O)N(S(=O)(=O)O)[C@@H]1CN1CCN/C1=N\C#N)c1csc(N)n1)C(=O)O` [Example 40, 2-(((Z)-(1-(2-aminothiazol-4-yl)-2-(((2R,3S)-2-(((E)-2-(cyanoimino)imidazolidin-1-yl)methyl)-4-oxo-1-sulfoazetidin-3-yl)amino)-2-oxoethylidene)amino)oxy)-2-methylpropanoic acid], which MIC (E. coli strain 25922; [1]) is on record?
**A.** 2 µg/mL (≈ 3.68 µM)

**Q.** And the MIC (E. coli containing KPC-2)?
**A.** 2 µg/mL (≈ 3.68 µM)

**Q.** How did the MIC (E. coli strain 25922; [1]) turn out when `CC(C)(O/N=C(\C(=O)N[C@@H]1C(=O)N(S(=O)(=O)O)[C@@H]1Cn1cc(CCN)nn1)c1csc(N)n1)C(=O)O` [Example 41, 2-(((Z)-(2-(((2R,3S)-2-((4-(2-aminoethyl)-1H-1,2,3-triazol-1-yl)methyl)-4-oxo-1-sulfoazetidin-3-yl)amino)-1-(2-aminothiazol-4-yl)-2-oxoethylidene)amino)oxy)-2-methylpropanoic acid] was run?
**A.** 1 µg/mL (≈ 1.83 µM)

**Q.** What about the MIC (E. coli containing KPC-2) of the same compound?
**A.** 2 µg/mL (≈ 3.67 µM)

**Q.** With `CC(C)(O/N=C(\C(=O)N[C@@H]1C(=O)N(S(=O)(=O)O)[C@@H]1Cn1cc(CCN2CCNCC2)nn1)c1csc(N)n1)C(=O)O` [Example 42, 2-(((Z)-(1-(2-aminothiazol-4-yl)-2-oxo-2-(((3S,4R)-2-oxo-4-((4-(2-(piperazin-1-yl)ethyl)-1H-1,2,3-triazol-1-yl)methyl)-1-sulfoazetidin-3-yl)amino)ethylidene)amino)oxy)-2-methylpropanoic acid] as the compound, how does the MIC (E. coli strain 25922; [1]) read?
**A.** 1.4 µg/mL (≈ 2.28 µM)

**Q.** What about the MIC (E. coli containing KPC-2) of the same compound?
**A.** 2 µg/mL (≈ 3.25 µM)

**Q.** How did the MIC (E. coli strain 25922; [1]) turn out when `CC(C)(O/N=C(\C(=O)N[C@@H]1C(=O)N(S(=O)(=O)O)[C@@H]1Cn1cc(CNC(=O)C[N+](C)(C)C)nn1)c1csc(N)n1)C(=O)O` [Example 43, (3S,4R)-3-((Z)-2-(2-aminothiazol-4-yl)-2-(((2-carboxypropan-2-yl)oxy)imino)acetamido)-2-oxo-4-((4-((2-(trimethylammonio)acetamido)methyl)-1H-1,2,3-triazol-1-yl)methyl)azetidine-1-sulfonate] was run?
**A.** 2 µg/mL

**Q.** What about the MIC (E. coli containing KPC-2) of the same compound?
**A.** 2 µg/mL

**Q.** With `CC(C)(O/N=C(\C(=O)N[C@@H]1C(=O)N(S(=O)(=O)O)[C@@H]1Cn1cc(CN)nn1)c1csc(N)n1)C(=O)O` [Example 44, 2-(((Z)-(2-(((2R,3S)-2-((4-(aminomethyl)-1H-1,2,3-triazol-1-yl)methyl)-4-oxo-1-sulfoazetidin-3-yl)amino)-1-(2-aminothiazol-4-yl)-2-oxoethylidene)amino)oxy)-2-methylpropanoic acid] as the compound, how does the MIC (E. coli strain 25922; [1]) read?
**A.** 0.67 µg/mL (≈ 1.26 µM)

**Q.** And the MIC (E. coli containing KPC-2)?
**A.** 1.5 µg/mL (≈ 2.82 µM)

**Q.** With `CC(C)(O/N=C(\C(=O)N[C@@H]1C(=O)N(S(=O)(=O)O)[C@@H]1Cn1cc(CNC(=N)N)nn1)c1csc(N)n1)C(=O)O` [Example 45, 2-(((Z)-(1-(2-aminothiazol-4-yl)-2-(((2R,3S)-2-((4-(guanidinomethyl)-1H-1,2,3-triazol-1-yl)methyl)-4-oxo-1-sulfoazetidin-3-yl)amino)-2-oxoethylidene)amino)oxy)-2-methylpropanoic acid] as the compound, how does the MIC (E. coli strain 25922; Escherichia coli, 25922, read-out: Ec 25922 (MIC)) read?
**A.** 0.5 µg/mL (≈ 0.872 µM)

**Q.** What about the MIC (E. coli containing KPC-2) of the same compound?
**A.** 0.5 µg/mL (≈ 0.872 µM)

**Q.** `CC(C)(O/N=C(\C(=O)N[C@@H]1C(=O)N(S(=O)(=O)O)[C@@H]1Cn1cc(CO)nn1)c1csc(N)n1)C(=O)O` [Example 47, 2-(((Z)-(1-(2-aminothiazol-4-yl)-2-(((2R,3S)-2-((4-(hydroxymethyl)-1H-1,2,3-triazol-1-yl)methyl)-4-oxo-1-sulfoazetidin-3-yl)amino)-2-oxoethylidene)amino)oxy)-2-methylpropanoic acid] was tested. Which MIC (E. coli strain 25922; [1]) did it give?
**A.** 2 µg/mL (≈ 3.76 µM)

**Q.** And the MIC (E. coli containing KPC-2)?
**A.** 5 µg/mL (≈ 9.39 µM)
